Measured values taken from the supplement of paper PMC10883282.

What was measured:
Assay in all cases: relative viability vs DMSO control (72 h) (fraction); higher = more viable cells
[1] = system: SK-LMS-1
In short: (§1)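 After seeding at densities set for 80–90% confluence in 384-well plates, sarcoma cell lines waited 24 h before 2.5 µl of serially diluted compound was added. Source plates held 10 mM down to 0.0002 mM. Plates were incubated 72 h at 37 °C with 5% CO2, with 0.1% DMSO vehicle and a 5 µM positive control, and relative viability was taken from ATPLite as percent growth averaged over up to triplicate wells, with 1 set as full and 0 as none.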

[2] = system: G401
In short: as §1

[3] = system: RD-ES
In short: as §1

[4] = system: KHOS-NP
In short: as §1

[5] = system: SW872
In short: as §1

[6] = system: MES-SA
In short: as §1

[7] = system: VA-ES-BJ
In short: as §1

[8] = system: SW1353
In short: as §1

[9] = system: HT1080
In short: as §1

[10] = system: RD
In short: as §1

[11] = system: SW684
In short: as §1

[12] = system: SK-ES-1
In short: as §1

CCS(=O)(=O)N1CC(CC#N)(n2cc(-c3ncnc4[nH]ccc34)cn2)C1 [Baricitinib]
Details | relative viability
[1], 0.00017 µM | 1.06
[1], 0.00051 µM | 1.07
[1], 0.00152 µM | 1.07
[1], 0.00457 µM | 1.03
[1], 0.01372 µM | 1.02
[1], 0.04115 µM | 1.07
[1], 0.1235 µM | 1.06
[1], 0.3704 µM | 1.04
[1], 1.111 µM | 1.06
[1], 3.333 µM | 1.01
[1], 10 µM | 0.878
[2], 0.00017 µM | 0.955
[2], 0.00051 µM | 0.9564
[2], 0.00152 µM | 0.975
[2], 0.00457 µM | 0.963
[2], 0.01372 µM | 0.948
[2], 0.04115 µM | 0.98
[2], 0.1235 µM | 0.965
[2], 0.3704 µM | 0.961
[2], 1.111 µM | 0.978
[2], 3.333 µM | 0.959
[2], 10 µM | 0.887
[3], 0.00017 µM | 0.981
[3], 0.00051 µM | 0.9701
[3], 0.00152 µM | 0.947
[3], 0.00457 µM | 0.9683
[3], 0.01372 µM | 0.951
[3], 0.04115 µM | 0.947
[3], 0.1235 µM | 0.956
[3], 0.3704 µM | 0.9847
[3], 1.111 µM | 1.03
[3], 3.333 µM | 1.04
[3], 10 µM | 1.04
[4], 0.00017 µM | 1.04
[4], 0.00051 µM | 1.04
[4], 0.00152 µM | 1.052
[4], 0.00457 µM | 1.06
[4], 0.01372 µM | 1.04
[4], 0.04115 µM | 1.04
[4], 0.1235 µM | 1.06
[4], 0.3704 µM | 1.02
[4], 1.111 µM | 1.03
[4], 3.333 µM | 0.985
[4], 10 µM | 0.906
[5], 0.00017 µM | 1.014
[5], 0.00051 µM | 1.01
[5], 0.00152 µM | 1.03
[5], 0.00457 µM | 1.03
[5], 0.01372 µM | 1.05
[5], 0.04115 µM | 1.04
[5], 0.1235 µM | 1.03
[5], 0.3704 µM | 1.03
[5], 1.111 µM | 1.05
[5], 3.333 µM | 1.01
[5], 10 µM | 0.877
[6], 0.00017 µM | 0.928
[6], 0.00051 µM | 0.936
[6], 0.00152 µM | 0.945
[6], 0.00457 µM | 0.942
[6], 0.01372 µM | 0.95
[6], 0.04115 µM | 0.929
[6], 0.1235 µM | 0.935
[6], 0.3704 µM | 0.929
[6], 1.111 µM | 0.893
[6], 3.333 µM | 0.83
[6], 10 µM | 0.753
[7], 0.00017 µM | 1.02
[7], 0.00051 µM | 1.01
[7], 0.00152 µM | 1.02
[7], 0.00457 µM | 1.03
[7], 0.01372 µM | 1.05
[7], 0.04115 µM | 1.03
[7], 0.1235 µM | 1.03
[7], 0.3704 µM | 1.03
[7], 1.111 µM | 1.04
[7], 3.333 µM | 1.06
[7], 10 µM | 0.996
[8], 0.00017 µM | 0.952
[8], 0.00051 µM | 0.931
[8], 0.00152 µM | 0.977
[8], 0.00457 µM | 0.975
[8], 0.01372 µM | 0.947
[8], 0.04115 µM | 0.961
[8], 0.1235 µM | 0.953
[8], 0.3704 µM | 0.969
[8], 1.111 µM | 0.985
[8], 3.333 µM | 0.915
[8], 10 µM | 0.786
[9], 0.00017 µM | 1.05
[9], 0.00051 µM | 1.04
[9], 0.00152 µM | 1.05
[9], 0.00457 µM | 1.04
[9], 0.01372 µM | 1.05
[9], 0.04115 µM | 1.06
[9], 0.1235 µM | 1.024
[9], 0.3704 µM | 1.04
[9], 1.111 µM | 1.02
[9], 3.333 µM | 1.07
[9], 10 µM | 1.024
[10], 0.00017 µM | 1.02
[10], 0.00051 µM | 1.02
[10], 0.00152 µM | 1.03
[10], 0.00457 µM | 1.03
[10], 0.01372 µM | 1.027
[10], 0.04115 µM | 0.991
[10], 0.1235 µM | 0.999
[10], 0.3704 µM | 1.03
[10], 1.111 µM | 1.051
[10], 3.333 µM | 1.12
[10], 10 µM | 1.03
[11], 0.00017 µM | 1.06
[11], 0.00051 µM | 1.04
[11], 0.00152 µM | 1.12
[11], 0.00457 µM | 1.09
[11], 0.01372 µM | 1.13
[11], 0.04115 µM | 1.07
[11], 0.1235 µM | 1.09
[11], 0.3704 µM | 1.03
[11], 1.111 µM | 1.07
[11], 3.333 µM | 1.05
[11], 10 µM | 0.915
[12], 0.00017 µM | 0.959
[12], 0.00051 µM | 1.01
[12], 0.00152 µM | 1.004
[12], 0.00457 µM | 0.986
[12], 0.01372 µM | 0.9898
[12], 0.04115 µM | 0.987
[12], 0.1235 µM | 0.987
[12], 0.3704 µM | 0.958
[12], 1.111 µM | 1.04
[12], 3.333 µM | 1.05
[12], 10 µM | 1.01
